The term melting point denotes the temperature, or range, at which the solid turns liquid.

Series [1] is described as follows: Concentration of compounds in plasma and brain following oral dosing. Type of series: in vivo, Sprague-Dawley rats. To be noted: Table 7; male rats, 10 mg/kg orally by gavage. The protocol: 2. Determination of the Concentration of Compounds in Plasma and Brain Following Dosing of Compounds in Animals
Male Sprague-Dawley rats were used in this study (2 to 4 per experiment). The animals were fasted overnight prior to dosing and throughout the duration of the study but were permitted water ad libitum.
Each rat received a 10 mg/kg (5 mL/kg) dose orally by gavage. At 0.5, 3 and 8 hours after drug administration, three animals were put under deep anesthesia using isoflurane and euthanized by bleeding (cardiac puncture) under deep isoflurane anesthesia. EDTA blood samples and brain tissue will be collected from each rat. Upon collection, the samples were promptly placed in an ice bath, and within 2 hours after sample collection, the blood was centrifuged at about 4° C. The resulting brain and plasma samples were placed in clean glass tubes and stored in a freezer until analysis.
The plasma samples were assayed for parent compound using appropriate liquid chromatography—mass spectrometry procedures. The results for compounds I are given in tables 2, and illustrate the high brain concentrations attainable with the compounds of the invention.

The target of series [2] is T1, human dopamine D2L receptors (long isoform) (Homo sapiens, UniProt P14416).
T1 construct: expressed in transfected cells; membranes)
T1 sequence (P14416 whole entry, canonical isoform): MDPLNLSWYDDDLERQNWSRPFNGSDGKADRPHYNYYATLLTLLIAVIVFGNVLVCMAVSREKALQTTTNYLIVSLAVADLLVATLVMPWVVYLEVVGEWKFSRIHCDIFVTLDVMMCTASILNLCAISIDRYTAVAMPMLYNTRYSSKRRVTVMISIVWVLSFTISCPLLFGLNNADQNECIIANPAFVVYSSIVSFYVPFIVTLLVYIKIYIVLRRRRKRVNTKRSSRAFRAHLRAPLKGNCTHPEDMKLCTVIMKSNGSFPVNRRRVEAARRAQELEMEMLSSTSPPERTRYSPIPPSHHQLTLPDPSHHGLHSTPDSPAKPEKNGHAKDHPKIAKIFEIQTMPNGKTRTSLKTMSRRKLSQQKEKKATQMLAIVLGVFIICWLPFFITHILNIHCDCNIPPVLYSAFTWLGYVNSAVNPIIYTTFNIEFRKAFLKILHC
Description: Dopamine D2L receptor binding ([125I] iodospiperone), basis of selectivity Ki(D2)/Ki(D3). The following applies: Table 7; compounds of formula IIa. The protocol: The substance to be tested was either dissolved in methanol/Chremophor® (BASF-AG) or in dimethyl sulfoxide and then diluted with water to the desired concentration. […] Each assay mixture was run in triplicate. The incubation buffer contained 50 mM tris, 120 mM NaCl, 5 mM KCl, 2 mM CaCl2, 2 mM MgCl2 and 0.1% bovine serum albumin. The buffer was adjusted to pH 7.4 with HCl. Measurement and Analysis: After having been incubated at 25° C. for 60 minutes, the assay mixtures were filtered through a Wathman GF/B glass fiber filter under vacuum using a cell collecting device. The filters were transferred to scintillation viols using a filter transfer system. After 4 ml of Ultima Gold® (Packard) have been added, the samples were shaken for one hour and the radioactivity was then counted in a Beta-Counter (Packard, Tricarb 2000 or 2200CA). The cpm values were converted into dpm using a standard quench series and the program belonging to the instrument. The inhibition curves were analyzed by means of iterative nonlinear regression analysis using the Statistical Analysis System (SAS) which is similar to the “LIGAND” program described by Munson and Rodbard.

Series [3] deals with T2, human dopamine D3 receptors (Homo sapiens, UniProt P35462).
T2 construct: expressed in transfected cells; membranes)
T2 sequence (P35462 whole entry): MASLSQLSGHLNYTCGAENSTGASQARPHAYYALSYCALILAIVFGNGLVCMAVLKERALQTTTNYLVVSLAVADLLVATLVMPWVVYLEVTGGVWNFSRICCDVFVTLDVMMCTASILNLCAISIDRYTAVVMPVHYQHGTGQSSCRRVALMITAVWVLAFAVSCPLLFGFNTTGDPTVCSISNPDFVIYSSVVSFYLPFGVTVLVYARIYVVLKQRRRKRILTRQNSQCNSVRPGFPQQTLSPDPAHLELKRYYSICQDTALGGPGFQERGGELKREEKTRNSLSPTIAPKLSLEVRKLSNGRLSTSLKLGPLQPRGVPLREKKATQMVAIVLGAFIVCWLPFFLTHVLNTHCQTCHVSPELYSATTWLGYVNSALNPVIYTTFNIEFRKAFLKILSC
The series is described as follows: Dopamine D3 receptor binding ([125I]-iodosulpride displacement). Here is the method:
The substance to be tested was either dissolved in methanol/Chremophor® (BASF-AG) or in dimethyl sulfoxide and then diluted with water to the desired concentration.
Each assay mixture was run in triplicate.
The incubation buffer contained 50 mM tris, 120 mM NaCl, 5 mM KCl, 2 mM CaCl2, 2 mM MgCl2 and 0.1% bovine serum albumin, 10 μM quinolone and 0.1% ascorbic acid (prepared fresh daily). The buffer was adjusted to pH 7.4 with HCl.
Measurement and Analysis:
After having been incubated at 25° C. for 60 minutes, the assay mixtures were filtered through a Wathman GF/B glass fiber filter under vacuum using a cell collecting device. The filters were transferred to scintillation viols using a filter transfer system. After 4 ml of Ultima Gold® (Packard) have been added, the samples were shaken for one hour and the radioactivity was then counted in a Beta-Counter (Packard, Tricarb 2000 or 2200CA). The cpm values were converted into dpm using a standard quench series and the program belonging to the instrument.
The inhibition curves were analyzed by means of iterative nonlinear regression analysis using the Statistical Analysis System (SAS) which is similar to the “LIGAND” program described by Munson and Rodbard.

The mark [4] stands for this setting: Table 7, compounds of formula IIa, read-out: D3.
Setting [5] is: compounds II, read-out: Ki D3 values.

pKi: −log10 of the molar value. Read-outs that look alike come from different tables or passages of the source. Some results are limits rather than exact numbers.

In the case of `Cl.Cn1cnnc1SCCCN1CCN(c2cc(C(F)(F)F)nc(C(C)(C)C)n2)CC1`, the melting point lay within 92 to 95 °C.
`CCc1nnc(SCCCN2CCN(c3cc(C(F)(F)F)nc(C(C)(C)C)n3)CC2)n1C.Cl` [c.15, 2-tert-Butyl-4-{4-[3-(4-methyl-5-ethyl-4H-[1,2,4]triazol-3-ylsulfanyl)-propyl]-piperazin-1-yl}-6-trifluoromethyl-pyrimidine hydrochloride]: in series [1], the Brain level is 1410 ng/g. This molecule also came in with a D2/D3 in series [2] of 364. Moreover, the pKi is 8.70 in series [3] (setting [4]) and above 8.30 in series [3] (setting [5]).
Molecule `Cl.Cn1c(SCCCN2CCN(c3cc(C(F)(F)F)nc(C(C)(C)C)n3)CC2)nnc1C1CC1` [c.17, 2-tert-Butyl-4-{4-[3-(4-methyl-5-cyclopropyl-4H-[1,2,4]triazol-3-ylsulfanyl)-propyl]-piperazin-1-yl}-6-trifluoromethyl-pyrimidine hydrochloride] showed a melting point of 182 to 184 °C. Also, the D2/D3 in series [2] came out at 293. Besides, the pKi in series [3] (setting [4]) was 9.05. In series [3] (setting [5]), the pKi is above 8.30.

These data come from US8101754B2, “Triazole compounds suitable for treating disorders that respond to modulation of the dopamine D3 receptor” (Abbott GmbH & Co. KG, priority 2004, dated 2012).
